Source: patent US8202687B2, “Method for transporting potassium ions from front side to back side of lipid bilayer membrane” (Panasonic Corporation, priority 2010, dated 2012)

Key:
[1] = molecular target: T1, β1 adrenergic receptor (Rattus norvegicus, UniProt P18090); assay: Patch-clamp agonist concentration dependence in Gi/olf94 chimeric G protein expressing cells (present invention); format: cell-based; conditions: for Change Level in Current Density (relative value): Table 14, 100 = 30000 nM dopamine, 100 nM dobutamine, 30 nM ISO
T1 construct: expressed in transfected cells; host or cells: HEK293T
Experimental: Membrane current of the chimeric G protein expressing cell was measured by using a patch-clamp technique. […] Procedure for the measurements is shown below.
Measurement operations were conducted under a microscope (“1X71” manufactured by Olympus, Inc.). A liquid circulation chamber was mounted on the silver/silver chloride (Ag/AgCl) electrode. A sample for measurement was placed in the liquid circulation chamber filled with Tyroad's buffer. At a state where a single cell was in contact with the tip of a glass electrode, negative pressure was applied in the glass electrode. The portion of a cell membrane in contact with the tip of the glass electrode was torn to form an equivalent circuit (Whole-cell mode). The electric potential difference between inside and outside a cell was kept at 0 mV by using a patch clamp amplifier (“EPC10” manufactured by HEKA Instrument Inc.). Under this mode, the Tyroad's buffer in the liquid circulation chamber was substituted with a GIRK buffer.
The GIRK buffer in the liquid circulation chamber was substituted with a sample solution.
Chemical substance detection sensitivity according to the present invention was compared to detection sensitivity of cAMP technique, which is a commonly used chemical substance detection technique. The cAMP technique is a technique for measuring an increase in cAMP concentration in an intracellular fluid caused by an interaction between an agonist and a receptor, and quantifying the concentration of the agonist based on the measured value. More particularly, cells expressing β1 adrenergic receptor and potassium ion channel Kir3.1 (F137S) were placed in contact with a buffer solution containing ISO, and then were homogenized. The concentration of cAMP contained in the obtained homogenate liquid was measured. The concentration measurement was performed by using a measurement kit (cyclic AMP EIA kit; Assay Designs, Inc.). The kit measures cAMP concentration by utilizing competitive EIA (competitive enzyme immunoassay). A cAMP concentration obtained when the ISO concentration inside of a buffer solution was 1000 nM was represented as 100 as a standard, and cAMP concentrations at respective ISO concentrations were calculated as ratios with regard to this standard cAMP concentration. […] A change value in current density obtained when the ISO concentration was 30 nM was represented as 100 as a standard, and change values in current density at respective ISO concentrations were calculated as ratios with regard to the standard change value.

[2] = tested on: β1 adrenergic receptor / potassium ion channel Kir3.1 (F137S) in HEK293T cells; assay: Patch-clamp membrane current of G protein expressing HEK293T cells with and without ISO; format: cell-based, rat (receptor), mouse (Kir3.1)
Experimental: A cell was obtained that expressed a chimeric G protein, a potassium ion channel, and a chemical substance receptor (hereinafter, the cell is referred to as “chimeric G protein expressing cell”). An electrophysiological activity of the chimeric G protein expressing cell was measured by using patch-clamp method. The chimeric G protein expressing cell was prepared in accordance with the following procedure. First, a chimeric G protein expression plasmid, a potassium ion channel expression plasmid, and a chemical substance receptor expression plasmid were prepared. Next, the three expression plasmids were transfected into HEK293T cells, and were then expressed inside the cells.
A chimeric G protein comprising Gi/olf13 as a chimeric Gα subunit was employed. The mutated potassium ion channel Kir3.1 (F137S) was employed as a potassium ion channel. The β1 adrenergic receptor was employed as a chemical substance receptor.
The plasmid (βAR), the plasmid Kir3.1 (F137S), and the plasmid (Gi/olf13) were expressed in HEK293T cells. The procedure for the expression is shown below. Approximately 80% confluent cultured HEK293T cells were collected, and plated on a new culture petri dish. The passage number of the used cells was not more than ten generations. DMEM (supplemented with 10% FBS (fetal bovine serum) and streptomycin) was used. After culturing the cells for 24 hours, the cells were transfected with the plasmids by using a transfection reagent. The cells were cultured for 48 hours after being transfected with the plasmids, and thereby chimeric G protein expressing cells were prepared.
Membrane current of the chimeric G protein expressing cell was measured by using a patch-clamp technique. Measurements were conducted with and without supplying isoproterenol (hereinafter, referred to as “ISO”) which was a β1 adrenergic receptor agonist. Procedure for the measurements is shown below.
The chimeric G protein expressing cells were plated on coverslips (3 mm×10 mm; Matsunami Glass Ind., Ltd.,) treated with PLL (poly-L-lysine) and kept still for four hours to obtain samples for the measurements.
Procedure for preparing glass electrodes used for the measurements is described below. […]
Measurement operations were conducted under a microscope (“1X71” manufactured by Olympus, Inc.). […] Pulse potentials (electric potential: −50 mV; duration time: 100 mS) were applied every 10 seconds, and membrane currents obtained upon the application were measured.
Next, membrane currents obtained when isoproterenol (hereinafter, abbreviated as “ISO”) which is a β1 adrenergic receptor agonist was brought into contact with the cell were measured in accordance with the following procedure. […]

T1 sequence (P18090 whole entry): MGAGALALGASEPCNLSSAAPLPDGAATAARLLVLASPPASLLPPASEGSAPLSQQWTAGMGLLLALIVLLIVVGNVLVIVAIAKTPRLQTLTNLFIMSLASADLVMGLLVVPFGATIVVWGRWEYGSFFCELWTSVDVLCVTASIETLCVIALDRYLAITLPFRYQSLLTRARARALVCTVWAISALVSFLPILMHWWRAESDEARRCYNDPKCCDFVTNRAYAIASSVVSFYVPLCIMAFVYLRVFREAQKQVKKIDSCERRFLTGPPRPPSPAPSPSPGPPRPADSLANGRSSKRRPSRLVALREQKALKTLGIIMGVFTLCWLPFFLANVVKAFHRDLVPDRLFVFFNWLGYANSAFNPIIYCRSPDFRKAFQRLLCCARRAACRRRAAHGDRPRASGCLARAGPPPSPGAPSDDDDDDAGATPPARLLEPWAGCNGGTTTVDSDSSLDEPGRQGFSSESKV

Row | Molecule | Change Level in Current Density (relative value) ([1]; agonist 0.3 nM) | Change Level in Current Density (relative value) ([1]; agonist 3 nM) | Change Level in Current Density (relative value) ([1]; agonist 30 nM) | Change Level in Current Density (relative value) ([1]; agonist 300 nM) | Change Level in Current Density (relative value) ([1]; agonist 3000 nM) | EC50 ([1]; change in current density, Gi/olf94 cells, read-out: half maximal effective concentration (EC50)) [nM] | change level of current caused by addition of ISO ([2]; Reference Example) | current value when ISO was supplied ([2]; Reference Example, FIG. 26-28, with ISO) | Change Level in Current Density ([2]; Table 11, difference of current density without vs with ISO 30 nM, pulse −50 mV, β1 adrenergic receptor + Kir3.1 (F137S) co-expressed) [pA/pF] | Current Change Level ([2]; Table 15, Reference Example, change on contact with ISO) [nA]
1 | CC(CCc1ccc(O)cc1)NCCc1ccc(O)c(O)c1 (stereo not shown) [dobutamine] | 0.67 | 6.80 | 20.59 | 99.15 | 100 | 50 |  |  |  | 
2 | Gαolf: wild type G protein α subunit Gαolf (mouse), SEQ ID NO: 2 (protein, listed as Mus musculus, (1)..(381) bulbus olfactorius of mouse) MGCLGNSSKTAEDQGVDEKERREANKKIEKQLQKERLAYKATHRLLLLGAGESGKSTIVKQMRILHVNGFNPEEKKQKILDIRKNVKDAIVTIVSAMSTIIPPVPLANPENQFRSDYIKSIAPITDFEYSQEFFDHVKKLWDDEGVKACFERSNEYQLIDCAQYFLERIDSVSLVDYTPTDQDLLRCRVLTSGIFETRFQVDKVNFHMFDVGGQRDERRKWIQCFNDVTAIIYVAACSSYNMVIREDNNTNRLRESLDLFESIWNNRWLRTISIILFLNKQDMLAEKVLAGKSKIEDYFPEYANYTVPEDATPDAGEDPKVTRAKFFIRDLFLRISTATGDGKHYCYPHFTCAVDTENIRRVFNDCRDIIQRMHLKQYELL |  |  |  |  |  |  | small | approximately 0.5 nA | −22.59 | −0.37
